Experimental data from patent US4734435A, “N-[[6-methoxy-5-(trifluoromethyl)-1-naphthalenyl]-thioxome thyl]-N-methylglycine S-oxide and the amide thereof” (American Home Products Corp., priority 1986, dated 1988).

Columns and labels:
[1] = tested on: galactitol accumulation in the lenses and sciatic nerves; assay: In vivo lowering of dulcitol (galactitol) accumulation in galactosemic rats; design: species or system rat (male, Sprague-Dawley); settings: for effect on accumulation of galactitol in the lenses and sciatic nerves (in words): rats fed galactose
From the text: The aldose reductase inhibiting property of the compounds of this invention and the utilization of the compounds in preventing, diminishing and alleviating diabetic complications are demonstrable in experiments using galactosemic rats, see Dvornik et al, cited above. Such experiments are exemplified hereinbelow after the listing of the following general comments pertaining to these experiments:
(a) Four or more groups of six male rats, 50-70 g, Sprague-Dawley strain, were used. The first group, the control group, was fed a mixture of laboratory chow (rodent Laboratory Chow, Purina) and glucose at 20% (w/w %) concentration. The untreated galactosemic group and the drug-treated groups were fed a similar diet in which galactose is substituted for glucose. The test compound was either admixed to the diet or administered by gavage. In experiments involving compound administration in the diet, the average dose administered was calculated from the actual food intake of the animals in each group. The concentration of galactose in the diet of the treated groups was the same as that for the untreated galactosemic group.
(b) After four days, the animals were killed by decapitation. The eyeballs were removed and punctured with a razor blade; the freed lenses were rolled gently on filter paper and weighed. The sciatic nerves were dissected as completely as possible and weighed. Both tissues when frozen can be kept up to two weeks before being analyzed for galactitol.
(c) The polyol determination was performed by a modification of the procedure of M. Kraml and L. Cosyns, Clin. Biochem., 2, 373 (1969). Only two minor reagent changes were made: (a) The rinsing mixture was an aqueous 5% (w/v) trichloroacetic acid solution and (b) the stock solution was prepared by dissolving 25 mg of dulcitol in 100 mL of an aqueous trichloroacetic acid solution. [N.B.: For each experiment the average value found in the tissue from rats fed the glucose diet was subtracted from the individual values found in the corresponding tissue in galactose-fed rats to obtain the amount of polyol accumulated.] The aldose reductase inhibiting effects of the compounds of formula (I) were also tested by employing an in vitro testing procedure similar to that described by S. Hayman and J. H. Kinoshita, J. Biol. Chem., 240, 877 (1965). In the present case the procedure of Hayman and Kinoshita was modified in that the final chromatography step was omitted in the preparation of the enzyme from bovine lens.
The figures under L and N represent the percentage decrease of galactitol accumulation in the tissues of the lens and sciatic nerve, respectively, for treated rats as compared to untreated rats.

[2] = Metabolites of tolrestat found in humans and other mammals; type: in vivo
aldose reductase = target: T1, aldose reductase (Bos taurus, UniProt P16116); assay: In vitro inhibition of aldose reductase from bovine lens (modified Hayman and Kinoshita procedure); type: biochemical; settings: 10^-7 M; enzyme from bovine lens
T1 construct: preparation of the enzyme from bovine lens; from tissue; host or cells: bovine lens
Experimental: Only two minor reagent changes were made: (a) The rinsing mixture was an aqueous 5% (w/v) trichloroacetic acid solution and (b) the stock solution was prepared by dissolving 25 mg of dulcitol in 100 mL of an aqueous trichloroacetic acid solution. [N.B.: For each experiment the average value found in the tissue from rats fed the glucose diet was subtracted from the individual values found in the corresponding tissue in galactose-fed rats to obtain the amount of polyol accumulated.] […] In the present case the procedure of Hayman and Kinoshita was modified in that the final chromatography step was omitted in the preparation of the enzyme from bovine lens.

[3] = lens, 50 mg/kg/day, gavage (same experiment), four days
[4] = sciatic nerve, 50 mg/kg/day, gavage (same experiment), four days

Which “% lowering dulcitol accumulation in vivo, L (lens)” value ([1]; lens, 10 mg/kg/day, gavage (same experiment), four days) does the source give for `COc1ccc2c(C(=S)N(C)CC(=O)O)cccc2c1C(F)(F)F` [tolrestat, N-[[6-methoxy-5-(trifluoromethyl)-1-naphthalenyl]thioxomethyl]-N-methylglycine, reference compound] here?
Its value is 0%.

What about the “% lowering dulcitol accumulation in vivo, N (sciatic nerve)” value ([1]; sciatic nerve, 10 mg/kg/day, gavage (same experiment), four days) of the same compound?
Its value is 81%.

Which results are given for `COc1ccc2c(C(=S=O)N(C)CC(=O)O)cccc2c1C(F)(F)F` [N-[[6-Methoxy-5-(trifluoromethyl)-1-naphthalenyl]thioxomethyl]-N-methylglycine S-oxide]?
comparison with tolrestat at 10 mg/kg/day (in words) ([1]; at a dose of 50 mg/kg/day): comparable results; % lowering dulcitol accumulation in vivo, L (lens) ([1]; lens, 20 mg/kg/day, diet, four days): 0%; % lowering dulcitol accumulation in vivo, L (lens) [1, 3]: 0%; % lowering dulcitol accumulation in vivo, L (lens) ([1]; lens, 115 mg/kg/day, diet, four days): 20%; effect on accumulation of galactitol in the lenses and sciatic nerves (in words) [1]: diminish the accumulation of galactitol in the lenses and sciatic nerves of rats fed galactose; % lowering dulcitol accumulation in vivo, N (sciatic nerve) ([1]; sciatic nerve, 20 mg/kg/day, diet, four days): 45%; % lowering dulcitol accumulation in vivo, N (sciatic nerve) [1, 4]: 70%; % lowering dulcitol accumulation in vivo, N (sciatic nerve) ([1]; sciatic nerve, 115 mg/kg/day, diet, four days): 100%; occurrence as metabolite of tolrestat (in words) [2]: one of the metabolites of tolrestat found in humans and other mammals; inhibition at 0.1 µM (aldose reductase): 80%

Which “% lowering dulcitol accumulation in vivo, L (lens)” value ([1]; 58 mg/kg/day, 96 h) does the source give for `COc1ccc2c(C(=S=O)N(C)CC(N)=O)cccc2c1C(F)(F)F` [[[[6-Methoxy-5-(trifluoromethyl)-1-naphthalenyl]thioxomethyl]methylamino]-acetamide S-oxide] here?
Its value is 0%.

What about the “% lowering dulcitol accumulation in vivo, N (sciatic nerve)” value ([1]; 58 mg/kg/day, 96 h) of the same compound?
Its value is 77%.

What about the “comparison with tolrestat at 10 mg/kg/day (in words)” value ([1]; at a dose of 58 mg/kg/day) of the same compound?
Its value is “comparable results”.

And the “% lowering dulcitol accumulation in vivo, L (lens)” value ([1]; lens, 12 mg/kg/day, mode of administration not given, four days)?
Its value is 0%.

What about the “effect on accumulation of galactitol in the lenses and sciatic nerves (in words)” value [1] of the same compound?
Its value is “diminish the accumulation of galactitol in the lenses and sciatic nerves of rats fed galactose”.

And the “% lowering dulcitol accumulation in vivo, N (sciatic nerve)” value ([1]; sciatic nerve, 12 mg/kg/day, mode of administration not given, four days)?
The value was 45%.

And the inhibition at 0.1 µM (aldose reductase)?
The inhibition at 0.1 µM was 3%.

With `COc1ccc2c(C(=O)N(C)CC(=O)O)cccc2c1C(F)(F)F` [N--[[6-methoxy-5-(trifluoromethyl)-1-naphthalenyl]carbonyl]-N--methylglycine, reference compound] as the compound, how does the “% lowering dulcitol accumulation in vivo, L (lens)” value [1, 3] read?
The value was 0%.

What about the “% lowering dulcitol accumulation in vivo, N (sciatic nerve)” value [1, 4] of the same compound?
Its value is 59%.
